Reference: ChEMBL document CHEMBL1201862, “PubChem BioAssay data set” (2004)
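Where inhibition never reached the appropriate level, the endpoint shown equals the highest concentration tested. Otherwise, values were interpolated linearly from a five-concentration, 48-hour dose response in 96-well plates. GI50 is the concentration that inhibits growth by half.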 Active and inactive are the calls of the source. No stated cut-off is given here; in the data, active = GI50 up to about 1.1 µM and inactive = higher.

Columns and labels:
Assay in all cases: growth of human tumour cells (NCI), 48 h
DU-145 = system: DU-145
EKVX = system: EKVX
HCC 2998 = system: HCC 2998
HCT-116 = system: HCT-116
HCT-15 = system: HCT-15
HOP-92 = system: HOP-92
K562 = system: K562
KM12 = system: KM12
M14 = system: M14
MDA-MB-435 = system: MDA-MB-435
NCI-H23 = system: NCI-H23
NCI-H460 = system: NCI-H460
OVCAR-4 = system: OVCAR-4
OVCAR-8 = system: OVCAR-8
PC-3 = system: PC-3
RXF 393 = system: RXF 393
SF-295 = system: SF-295
SK-MEL-5 = system: SK-MEL-5
SNB-75 = system: SNB-75
SR = system: SR

| SMILES | GI50 (DU-145) | GI50 (EKVX) | GI50 (HCC 2998) | GI50 (HCT-116) | GI50 (HCT-15) | GI50 (HOP-92) | GI50 (K562) | GI50 (KM12) | GI50 (M14) | GI50 (MDA-MB-435) | GI50 (NCI-H23) | GI50 (NCI-H460) | GI50 (OVCAR-4) | GI50 (OVCAR-8) | GI50 (PC-3) | GI50 (RXF 393) | GI50 (SF-295) | GI50 (SK-MEL-5) | GI50 (SNB-75) | GI50 (SR) |
| --- | --- | --- | --- | --- | --- | --- | --- | --- | --- | --- | --- | --- | --- | --- | --- | --- | --- | --- | --- | --- |
| CCCCCCCCCCCCCCCC[N+](C)(C)CCl | 3.78 µM (inactive) | 8.61 µM (inactive) | 1.66 µM (inactive) | 2.14 µM (inactive) | 3.59 µM | 1.17 µM (inactive) | 1.75 µM (inactive) | 1.46 µM (inactive) | 2.31 µM (inactive) | 3.07 µM (inactive) | 4.19 µM (inactive) | 1.77 µM (inactive) | 2.86 µM (inactive) | 2.61 µM (inactive) | 2.17 µM (inactive) | 1.32 µM (inactive) | 2.26 µM (inactive) | 1.68 µM (inactive) | 1.86 µM (inactive) | 1.99 µM (inactive) |
| CCCCNCC(=O)O[C@]1(CC)C(=O)OCc2c1cc1n(c2=O)Cc2cc3ccccc3nc2-1 | 0.0482 µM (active) | 2.98 µM (inactive) | 1.74 µM (inactive) | 0.407 µM (active) | 2.15 µM | 1.52 µM (inactive) | 0.476 µM (active) | 1.63 µM (inactive) | 0.231 µM (active) | 1.57 µM (inactive) | 0.0769 µM (active) | 0.0261 µM (active) | 7.19 µM (inactive) | 0.217 µM (active) | 1.85 µM (inactive) | 0.385 µM (active) | 0.0705 µM (active) | 0.277 µM (active) | 0.098 µM (active) | 0.0101 µM (active) |
| CCOC(=O)Nc1ccc2c(c1)N(C(=O)CCN(CC)CC)c1ccccc1S2 [ETHACIZINE] | 50.1 µM (inactive) | > 35.9 µM (inactive) | 17.3 µM (inactive) | 17.6 µM (inactive) | 30.4 µM | 18.9 µM (inactive) | 25.8 µM (inactive) | 15.5 µM (inactive) | 22.9 µM (inactive) | 29 µM (inactive) | 31.8 µM (inactive) | 20.1 µM (inactive) | 43.6 µM (inactive) | 25 µM (inactive) | 31.4 µM (inactive) | 21.6 µM (inactive) | 22.1 µM (inactive) | 19.2 µM (inactive) | 2.09 µM (inactive) | 17.5 µM (inactive) |
| CCC/N=C/c1cc(Cc2ccc(O)c(/C=N/CCC)c2)ccc1O | 4.61 µM (inactive) | 8.87 µM (inactive) | 14.1 µM (inactive) | 2.37 µM (inactive) | 3.33 µM | 1.85 µM (inactive) | 1.69 µM (inactive) | 3.95 µM (inactive) | 2.69 µM (inactive) | 3.47 µM (inactive) | 6.46 µM (inactive) | 18.4 µM (inactive) | 5.47 µM (inactive) | 3.1 µM (inactive) | 1.82 µM (inactive) | 16.3 µM (inactive) | 12.9 µM (inactive) | 5.51 µM (inactive) | 2.86 µM (inactive) | 1.95 µM (inactive) |
| O=CC12c3ccccc3C(c3ccccc31)C1C(=O)NC(=O)C12 (stereo not given) | > 100 µM (inactive) | > 100 µM (inactive) | > 100 µM (inactive) | 45.9 µM (inactive) | > 100 µM | > 100 µM (inactive) | 66.8 µM (inactive) | > 100 µM (inactive) | > 100 µM (inactive) | > 100 µM (inactive) | > 100 µM (inactive) | > 100 µM (inactive) | > 100 µM (inactive) | > 100 µM (inactive) | > 100 µM (inactive) | 76.2 µM (inactive) | > 100 µM (inactive) | 37.2 µM (inactive) | 39 µM (inactive) | > 100 µM (inactive) |
| O=c1[nH]c2cc3cccnc3c(Cl)c2nc1C(F)(F)F | 54.8 µM (inactive) | 9.91 µM (inactive) | 42 µM (inactive) | 43.5 µM (inactive) | 44.5 µM | 7.16 µM (inactive) | 29.7 µM (inactive) | 21 µM (inactive) | 28.8 µM (inactive) | 33.7 µM (inactive) | 25 µM (inactive) | 27.5 µM (inactive) | 21.8 µM (inactive) | 28.8 µM (inactive) | 52 µM (inactive) | 46.7 µM (inactive) | 41 µM (inactive) | 14.5 µM (inactive) | 27.5 µM (inactive) | 28.2 µM (inactive) |
| CCN(CC)CC[n+]1ccc2c(C)c3[nH]c4ccc(O)cc4c3c(C)c2c1 | 2.4 µM (inactive) | 10.8 µM (inactive) | 6.15 µM (inactive) | 6.47 µM (inactive) | 18.7 µM | 3.85 µM (inactive) | 4.06 µM (inactive) | 4.31 µM (inactive) | 10.7 µM (inactive) | 9.42 µM (inactive) | 3.82 µM (inactive) | 0.434 µM (active) | 3.85 µM (inactive) | 3.72 µM (inactive) | 7.46 µM (inactive) | 11.1 µM (inactive) | 3.01 µM (inactive) | 3.09 µM (inactive) | 1 µM (active) | 0.0278 µM (active) |
| COC(=O)C(CCC1C=CN(S(=O)(=O)c2ccc(C)cc2)C1)/N=C/c1ccccc1 (stereo not given) | 43 µM (inactive) | 42.2 µM (inactive) | 43.1 µM (inactive) | 33.4 µM (inactive) | 88.5 µM | 29.7 µM (inactive) | 34.7 µM (inactive) | 34.8 µM (inactive) | 42.7 µM (inactive) | 33.2 µM (inactive) | 26.4 µM (inactive) | 44.9 µM (inactive) | 46.1 µM (inactive) | 39.5 µM (inactive) | 32.7 µM (inactive) | 75.5 µM (inactive) | 41.1 µM (inactive) | 22.2 µM (inactive) | 52.5 µM (inactive) | 23.4 µM (inactive) |
| Cc1nc2ccccc2c(=O)n1NC(=O)c1ccccc1O | > 100 µM (inactive) | > 100 µM (inactive) | > 100 µM (inactive) | > 100 µM (inactive) | > 100 µM | > 100 µM (inactive) | > 100 µM (inactive) | > 100 µM (inactive) | > 100 µM (inactive) | > 100 µM (inactive) | > 100 µM (inactive) | > 100 µM (inactive) | > 100 µM (inactive) | > 100 µM (inactive) | > 100 µM (inactive) | > 100 µM (inactive) | > 100 µM (inactive) | > 100 µM (inactive) | > 100 µM (inactive) | > 100 µM (inactive) |
| Cc1c(C(=O)OCc2ccccc2)[n+]([O-])c2cc(F)c(F)cc2[n+]1[O-] | 2.41 µM (inactive) | 3.26 µM (inactive) | 1.9 µM (inactive) | 1.63 µM (inactive) | 0.583 µM | 2.21 µM (inactive) | 0.264 µM (active) | 5.68 µM (inactive) | 1.77 µM (inactive) | 2.15 µM (inactive) | 2.37 µM (inactive) | 2.46 µM (inactive) | 1.77 µM (inactive) | 2.07 µM (inactive) | 2.52 µM (inactive) | 2.38 µM (inactive) | 2.16 µM (inactive) | 0.698 µM (active) | 2.7 µM (inactive) | 0.877 µM (active) |
